From patent US12194070B2, “Traditional chinese medicine compound for improving testicular dysfunction, preparation method and application thereof” (Ningxia Medical University, priority 2023, dated 2025)
Structures can show the parent of a compound that is named as a salt.

Tests used:
Format in all cases: in vivo, C57BL/6J mice
[1] = test system: Bcl-2; assay: Western blot of Bcl-2 expression in testis; settings: Western blot gray values, metformin 200 mg/kg/d, after 30 days
Method: (§1) Protein samples are taken and added into concentrated gel of an electrophoresis tank for running the gel, transferring the protein from the gel to the membrane, bovine albumin (BSA) blocking and membrane washing, then primary antibodies (including PI3K (rabbit antibody), AKT (rabbit antibody), p-AKT (rabbit antibody), β-actin (rabbit antibody), Bcl-2 (rabbit antibody) and β-actin (mouse antibody) diluted at the concentration 1:1000) are added for incubation and stay overnight in the refrigerator at 4° C.; the next day, the membrane is washed, after the secondary antibodies (including: a mouse secondary antibody (1:5000) and a rabbit secondary antibody (1:2000)) are added for incubation and blocked, the membrane is washed, followed by development, and then gray values are analyzed. Data is analyzed using GraphPad Prism 8.4 statistical software. Counting data of experimental results is expressed as rate/percentage (%), and measurement data is expressed as x±s. The one-way ANOVA is used to compare the groups, and the difference is statistically significant with P<0.05.

[2] = test system: PI3K; assay: Western blot of PI3K expression in testis; settings: Western blot gray values, metformin 200 mg/kg/d, after 30 days
Method: as §1

[3] = Body weight of mice with testicular dysfunction caused by obese type 2 diabetes mellitus; set-up: AUC of weight before treatment: unit not given beside the values
Method: With six mice in each group, the mice are randomly assigned after one week of adaptive rearing to a control group (Con), a model group (Model), a high-dose compound group (YPBS-H), a low-dose compound group (YPBS-L) and a metformin group (Metformin, Met). The six mice in the control group are given regular feed, the remaining mice are fed with 60% high-fat feed, the weight of each of mice is recorded every 7 days during the feeding.
The mice in each group have been successfully established after feeding for 16 weeks in step 2.1, and the mice in each group are given medicine treatment as follows.
The high-dose compound group (YPBS-H): the traditional Chinese medicine compound obtained in the embodiment 1 is given at a dose of 4 grams per kilogram per day (g/kg/d) per animal.
The low-dose compound group (YPBS-L): the traditional Chinese medicine compound obtained in the embodiment 1 is given at a dose of 2 g/kg/d per animal.
The metformin group (Met): the metformin is given at a dose of 200 mg/kg/d per animal.
During the administration, the mice are fed with the normal feed and drink water normally, and the weight changes of mice are observed. Data is analyzed using GraphPad Prism 8.4 statistical software. Counting data of experimental results is expressed as rate/percentage (%), and measurement data is expressed as x (i.e., mean)±s. The one-way analysis of variance (ANOVA) is used to compare the groups, and the difference is statistically significant with P<0.05.

[4] = test system: GSH-px; assay: Serum GSH-Px by colorimetry; settings: metformin 200 mg/kg/d, after 30 days
Method: (§2) The levels of T-SOD, MDA and GSH-px in serum are measured by colorimetry, and the level of testosterone (T) in serum is measured by enzyme linked immunosorbent assay (ELISA), all according to the manufacturer's instructions. Data is analyzed using GraphPad Prism 8.4 statistical software. Counting data of experimental results is expressed as rate/percentage (%), and measurement data is expressed as x±s. The one-way ANOVA is used to compare the groups, and the difference is statistically significant with P<0.05.

[5] = test system: obese type 2 diabetic mice; assay: Cage experiment (fertility)
Method: Female mice of childbearing age are caged with male mice of each group in the ratio of 2:1 for one week, and their fertility is tested by the birth situation.

[6] = test system: obese type 2 diabetic mice; assay: Testis, epididymis and seminal vesicle gland coefficients; settings: metformin 200 mg/kg/d, after 30 days
[7] = test system: testosterone (T); assay: Serum testosterone by ELISA; settings: metformin 200 mg/kg/d, after 30 days
Method: as §2

[8] = test system: mouse testis tissue; assay: HE staining of testis tissue (testicular morphology); settings: HE staining 200x; metformin 200 mg/kg/d, after 30 days
[9] = test system: T-SOD; assay: Serum T-SOD by colorimetry; settings: metformin 200 mg/kg/d, after 30 days
Method: as §2

[10] = test system: sperm of obese type 2 diabetic mice; assay: Analysis of semen parameters; settings: metformin 200 mg/kg/d, after 30 days
Method: One side of epididymis in each group is put into a 12-well plate, diluted with 500 μL of normal saline, fully cut into pieces by a tissue scissor, incubated in a 37° C. incubator, and filtered by a 200-mesh sieve, and 20 μL of filtrate is collected on a cell counting plate, observed under a microscope, and the number of sperm is counted. Sperm viability, sperm motility and malformation rate are counted respectively by Yin Hong aniline black and Diff-Quick staining. Data is analyzed using GraphPad Prism 8.4 statistical software. Counting data of experimental results is expressed as rate/percentage (%), and measurement data is expressed as x±s. The one-way ANOVA is used to compare the groups, and the difference is statistically significant with P<0.05.

[11] = test system: mice with testicular dysfunction caused by obese type 2 diabetes mellitus; assay: Insulin tolerance test (ITT); settings: metformin 200 mg/kg/d, after 30 days; blood glucose 0-120 min after insulin
Method: (§3) 2.3 After 30 days of administration of each group in step 2.2, the following tests are performed in each group.
(§4) ITT test: the mice are weighed after 5 h fast, the insulin dosage is calculated, and FPG of the mice is measured. Blood glucose fluctuations are then monitored at 15 min, 30 min, 60 min and 120 min after insulin is given. Data is analyzed using GraphPad Prism 8.4 statistical software. Counting data of experimental results is expressed as rate/percentage (%), and measurement data is expressed as x±s. The one-way ANOVA is used to compare the groups, and the difference is statistically significant with P<0.05.

[12] = test system: mice with testicular dysfunction caused by obese type 2 diabetes mellitus; assay: Fasting blood glucose (FPG); settings: metformin 200 mg/kg/d, day 30
Method: (§5) OGTT test: the mice are weighed after 15 h fast, fasting blood glucose (FPG) of the mice is measured separately, and the amount of glucose is determined based on the mice's weight. Blood glucose fluctuations are then monitored at 15 min, 30 min, 60 min and 120 min after gavage. Data is analyzed using GraphPad Prism 8.4 statistical software. Counting data of experimental results is expressed as rate/percentage (%), and measurement data is expressed as x±s. The one-way ANOVA is used to compare the groups, and the difference is statistically significant with P<0.05.
as §4

[13] = test system: sperm and egg cells; assay: In vitro fertilization with sperm of the treated mice
Excerpt: The sperm of the mice in each group is taken for fertilization in vitro.

[14] = test system: MDA; assay: Serum MDA by colorimetry; settings: metformin 200 mg/kg/d, after 30 days
Method: as §2

[15] = test system: mice with testicular dysfunction caused by obese type 2 diabetes mellitus; assay: Oral glucose tolerance test (OGTT); settings: metformin 200 mg/kg/d, after 30 days; blood glucose 0-120 min after gavage
Method: as §3, §5

[16] = test system: p-AKT; assay: Western blot of p-AKT expression in testis; settings: Western blot gray values, metformin 200 mg/kg/d, after 30 days
Method: as §1

[17] = after treatment, dose group not stated
[18] = females caged with males 2:1 for one week, males given metformin 200 mg/kg/d
[19] = of 10 egg cells, sperm of mice given metformin 200 mg/kg/d

In the case of `CN(C)C(=N)N=C(N)N` [Met, metformin hydrochloride], the Bcl-2/β-actin [1] is reported as 1.020 ± 0.076^Δ, the PI3K/β-actin [2] is reported as 0.945 ± 0.056^Δ and the “AUC of weight before treatment” value ([3]; before treatment (16 weeks high-fat feed), metformin group) is reported as 613.8 ± 5.3^Δ. The “AUC of weight after treatment” value ([3]; metformin 200 mg/kg/d, 30 days) was 1243.0 ± 12.0^Δ, the “Weight on the 30th day after treatment” value ([3]; metformin 200 mg/kg/d, day 30) was 37.9 ± 2.2^Δ g and the GSH-Px [4] was 2206.0 ± 535.6^Δ umol/L. For the same molecule, the “fertility of the mice” value [5, 17] was “improved, reaching the normal fertility level”, the “Average number of offspring” value [5, 18] was 5.3 and the Pregnancy rate [5, 18] was 50%. The Vaginal suppository [5, 18] was 50%, the Epididymis coefficient [6] was 0.33 ± 0.03^Δ % and the “Seminal vesicle gland coefficient” value [6] was 1.21 ± 0.06^Δ %. For the same molecule, the Testis coefficient [6] was 0.65 ± 0.04^Δ %, the “Testosterone T” value [7] was 5.06 ± 1.42 ng/mL and the “testicular morphology compared to the model group” value [8] was “considerably improved”. The T-SOD [9] was 168.4 ± 34.7^Δ U/mgprot, the Sperm count [10] was 85.02 ± 10.55^Δ 10^6/L and the Sperm malformation rate [10] was 68.18 ± 4.12^Δ %. For the same molecule, the Sperm motility [10] was 34.55 ± 0.37^Δ %, the Sperm viability [10] was 43.84 ± 3.59^Δ % and the ITT-AUC [11] was 760.7 ± 49.5^Δ. The “FPG on the 30th day after treatment” value [12] was 5.5 ± 0.9^Δ, the “binding rate of sperm and egg cells” value [13, 17] was “increases” and the “division of fertilized egg cells” value [13, 17] was “divide normally”. The “Number of division of fertilized eggs within 24 hours” value [13, 19] was 7, the “Sperm and egg binding number” value [13, 19] was 7 and the MDA [14] was 5.6 ± 1.5^Δ umol/L. The OGTT-AUC [15] was 1660 ± 70.3^Δ and the p-AKT/AKT [16] was 0.635 ± 0.141.
